Experimental findings from patent US10793580B2, “Substituted pyrazoloazepin-8-ones and their use as phosphodiesterase inhibitors” (LEO Pharma A/S, priority 2016, dated 2020) are described below.

Structures are written as SMILES.

Chain of human PDE4D catalytic domain (Q08499 380-740): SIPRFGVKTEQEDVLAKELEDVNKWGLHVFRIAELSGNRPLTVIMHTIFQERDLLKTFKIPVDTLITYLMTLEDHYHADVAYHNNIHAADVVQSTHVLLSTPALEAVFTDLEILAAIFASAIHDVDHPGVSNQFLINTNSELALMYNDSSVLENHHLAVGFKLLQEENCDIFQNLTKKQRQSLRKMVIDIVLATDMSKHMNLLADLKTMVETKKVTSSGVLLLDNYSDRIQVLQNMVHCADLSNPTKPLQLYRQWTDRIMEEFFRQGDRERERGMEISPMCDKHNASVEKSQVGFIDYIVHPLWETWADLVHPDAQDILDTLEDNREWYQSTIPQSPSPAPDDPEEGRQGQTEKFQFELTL

In the first assay the target is human PDE4D catalytic domain (Homo sapiens (Human), UniProt Q08499). In words: PDE4 Assay (TR-FRET, FAM-cAMP cleavage). The note with it: Table 16, Examples 277-296; read-out: PDE4 IC50 range. The assay is classed as biochemical. The procedure, abridged:
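PDE4D catalytic domain (S380-L740) incubated briefly with unlabelled cAMP plus FAM-cAMP and titrated compound. Reaction stopped with binding buffer holding metal-ion nanoparticles that bind AMP phospho groups and Tb donor, and AMP formation read by TR-FRET. IC50 versus controls, reported as ranges (nM).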
As for `CCn1nc(C[C@@H](C)COC(=O)c2cn(C)cn2)c2c1C(=O)NCC1(CCOCC1)C2` [Example 280, [(2R)-3-(1-ethyl-8-oxo-spiro[6,7-dihydro-4H-pyrazolo[3,4-c]azepine-5,4′-tetrahydropyran]-3-yl)-2-methyl-propyl] 1-methylimidazole-4-carboxylate], the IC50 was below 100 nM.

As to `CCn1nc(C[C@@H](C)COC(=O)c2cnc(C)nc2)c2c1C(=O)NCC1(CCOCC1)C2` [Example 288, [(2R)-3-(1-ethyl-8-oxo-spiro[6,7-dihydro-4H-pyrazolo[3,4-c]azepine-5,4′-tetrahydropyran]-3-yl)-2-methyl-propyl] 2-methylpyrimidine-5-carboxylate], the IC50 was below 100 nM.

For `CCn1nc(C[C@@H](C)COC(=O)c2cnn(C)c2)c2c1C(=O)NCC1(CCOCC1)C2` [Example 279, [(2R)-3-(1-ethyl-8-oxo-spiro[6,7-dihydro-4H-pyrazolo[3,4-c]azepine-5,4′-tetrahydropyran]-3-yl)-2-methyl-propyl] 1-methylpyrazole-4-carboxylate], the IC50 is below 100 nM.

The assay is the same for the next values; noted with them: Table 17, Examples 297-316; read-out: PDE4 IC50 range.
Consider `CCn1nc(CC(C)(C)COC(=O)c2cnc(C)s2)c2c1C(=O)NCC1(CCOCC1)C2` [Example 311, [3-(1-ethyl-8-oxo-spiro[6,7-dihydro-4H-pyrazolo[3,4-c]azepine-5,4′-tetrahydropyran]-3-yl)-2,2-dimethyl-propyl] 2-methylthiazole-5-carboxylate], for which the IC50 is below 100 nM.

The same assay, now with this note: human PDE4D catalytic domain (UniProt Q08499 [S380-L740]); 50% inhibition of substrate cleavage; read-out: PDE4 IC50 range.
With `CCn1nc(CCCOC(=O)c2coc(C)n2)c2c1C(=O)NCC1(CCOCC1)C2` [Example 240, 3-(1-ethyl-8-oxo-spiro[6,7-dihydro-4H-pyrazolo[3,4-c]azepine-5,4′-tetrahydropyran]-3-yl)propyl 2-methyloxazole-4-carboxylate], the IC50 was below 100 nM.

`CCn1nc(CCCOC(=O)c2ccns2)c2c1C(=O)NCC1(CCOCC1)C2` [Example 242, 3-(1-ethyl-8-oxo-spiro[6,7-dihydro-4H-pyrazolo[3,4-c]azepine-5,4′-tetrahydropyran]-3-yl)propyl isothiazole-5-carboxylate]: the IC50 is below 100 nM.

For the compound `CCc1cc(C(=O)OCCCc2nn(CC)c3c2CC2(CCOCC2)CNC3=O)nn1C` [Example 259, 3-(1-ethyl-8-oxo-spiro[6,7-dihydro-4H-pyrazolo[3,4-c]azepine-5,4′-tetrahydro-pyran]-3-yl)propyl 5-ethyl-1-methyl-pyrazole-3-carboxylate], the IC50 was below 100 nM.

With `CCn1nc(C[C@@H](C)COC(=O)c2ccccc2C)c2c1C(=O)NCC1(CCOCC1)C2` [Example 141, [(2R)-3-(1-ethyl-8-oxo-spiro[6,7-dihydro-4H-pyrazolo[3,4-c]azepine-5,4′-tetrahydropyran]-3-yl)-2-methyl-propyl] 2-methylbenzoate], the IC50 was below 100 nM.

Consider `CCn1nc(CCCOC(=O)c2ccc(F)c(C#N)c2)c2c1C(=O)NCC1(CCOCC1)C2` [Example 30, 3-(1-ethyl-8-oxo-spiro[6,7-dihydro-4H-pyrazolo[3,4-c]azepine-5,4′-tetrahydropyran]-3-yl)propyl 3-cyano-4-fluoro-benzoate], for which the IC50 is below 100 nM.

For `CCn1nc(CCCOC(=O)C2CCOCC2)c2c1C(=O)NCC1(CCOCC1)C2` [Example 246, 3-(1-ethyl-8-oxo-spiro[6,7-dihydro-4H-pyrazolo[3,4-c]azepine-5,4′-tetrahydropyran]-3-yl)propyl tetrahydropyran-4-carboxylate], the IC50 is below 100 nM.

`CCn1nc(CCCOC(=O)c2ccc(F)cc2C)c2c1C(=O)NCC1(CCOCC1)C2` [Example 19, 3-(1-ethyl-8-oxo-spiro[6,7-dihydro-4H-pyrazolo[3,4-c]azepine-5,4′-tetrahydropyran]-3-yl)propyl 4-fluoro-2-methyl-benzoate]: the IC50 is below 100 nM.

`CCn1nc(CCCOC(=O)c2cc(OC)ccc2F)c2c1C(=O)NCC1(CCOCC1)C2` [Example 37, 3-(1-ethyl-8-oxo-spiro[6,7-dihydro-4H-pyrazolo[3,4-c]azepine-5,4′-tetrahydropyran]-3-yl)propyl 2-fluoro-5-methoxy-benzoate]: the IC50 was below 100 nM.

For `CCn1nc(C[C@@H](C)COC(=O)c2ccc(C(C)=O)cc2)c2c1C(=O)NCC1(CCOCC1)C2` [Example 153, [(2R)-3-(1-ethyl-8-oxo-spiro[6,7-dihydro-4H-pyrazolo[3,4-c]azepine-5,4′-tetrahydropyran]-3-yl)-2-methyl-propyl] 4-acetylbenzoate], the IC50 was below 100 nM.

Turning to `CCn1nc(CC(C)(C)COC(=O)c2cccc(S(=O)(=O)N3CCN(C(C)=O)CC3)c2)c2c1C(=O)NCC1(CCOCC1)C2` [Example 215, [3-(1-ethyl-8-oxo-spiro[6,7-dihydro-4H-pyrazolo[3,4-c]azepine-5,4′-tetrahydropyran]-3-yl)-2,2-dimethyl-propyl] 3-(4-acetylpiperazin-1-yl)sulfonylbenzoate], the IC50 was below 100 nM.

Consider `CCn1nc(CC(C)(C)COC(=O)c2ccc(C(=O)NC)cc2)c2c1C(=O)NCC1(CCOCC1)C2` [Example 219, [3-(1-ethyl-8-oxo-spiro[6,7-dihydro-4H-pyrazolo[3,4-c]azepine-5,4′-tetrahydropyran]-3-yl)-2,2-dimethyl-propyl] 4-(methylcarbamoyl)benzoate], for which the IC50 is below 100 nM.

As to `CCn1nc(CCCCOC(=O)c2cnc(C)o2)c2c1C(=O)NCC1(CCOCC1)C2` [Example 267, 4-(1-ethyl-8-oxo-spiro[6,7-dihydro-4H-pyrazolo[3,4-c]azepine-5,4′-tetrahydropyran]-3-yl)butyl 2-methyloxazole-5-carboxylate], the IC50 is below 100 nM.

For `CCn1nc(CCCOC(=O)C2CCOC2)c2c1C(=O)NCC1(CCOCC1)C2` (stereo not shown) [Example 236, 3-(1-ethyl-8-oxo-spiro[6,7-dihydro-4H-pyrazolo[3,4-c]azepine-5,4′-tetrahydro-pyran]-3-yl)propyl tetrahydrofuran-3-carboxylate], the 50% inhibitory concentration (IC50) is below 100 nM.

With `CCn1nc(C[C@@H](C)COC(=O)c2cccc(C(=O)N3CCCCC3)c2)c2c1C(=O)NCC1(CCOCC1)C2` [Example 182, [(2R)-3-(1-ethyl-8-oxo-spiro[6,7-dihydro-4H-pyrazolo[3,4-c]azepine-5,4′-tetrahydropyran]-3-yl)-2-methyl-propyl] 3-(piperidine-1-carbonyl)benzoate], the IC50 was below 100 nM.

As for `CCn1nc(CCCOC(=O)c2ccc(C(F)(F)F)cc2F)c2c1C(=O)NCC1(CCOCC1)C2` [Example 70, 3-(1-ethyl-8-oxo-spiro[6,7-dihydro-4H-pyrazolo[3,4-c]azepine-5,4′-tetrahydro-pyran]-3-yl)propyl 2-fluoro-4-(trifluoromethyl)benzoate], the IC50 was below 100 nM.

Consider `CCn1nc(C[C@@H](C)COC(=O)CCS(C)(=O)=O)c2c1C(=O)NCC1(CCOCC1)C2` [Example 152, [(2R)-3-(1-ethyl-8-oxo-spiro[6,7-dihydro-4H-pyrazolo[3,4-c]azepine-5,4′-tetrahydropyran]-3-yl)-2-methyl-propyl] 3-methylsulfonylpropanoate], for which the IC50 is below 100 nM.

For `CCn1nc(C[C@@H](C)COC(=O)c2cccc(C(N)=O)c2)c2c1C(=O)NCC1(CCOCC1)C2` [Example 178, [(2R)-3-(1-ethyl-8-oxo-spiro[6,7-dihydro-4H-pyrazolo[3,4-c]azepine-5,4′-tetrahydropyran]-3-yl)-2-methyl-propyl] 3-carbamoylbenzoate], the IC50 was below 100 nM.

Turning to `CCn1nc(CCCOC(=O)c2ccc(C)cc2Cl)c2c1C(=O)NCC1(CCOCC1)C2` [Example 42, 3-(1-ethyl-8-oxo-spiro[6,7-dihydro-4H-pyrazolo[3,4-c]azepine-5,4′-tetrahydropyran]-3-yl)propyl 2-chloro-4-methyl-benzoate], the IC50 was below 100 nM.

In the case of `CCc1ccc(C(=O)OC[C@H](C)Cc2nn(CC)c3c2CC2(CCOCC2)CNC3=O)cc1` [Example 148, [(2R)-3-(1-ethyl-8-oxo-spiro[6,7-dihydro-4H-pyrazolo[3,4-c]azepine-5,4′-tetrahydropyran]-3-yl)-2-methyl-propyl] 4-ethylbenzoate], the IC50 is below 100 nM.

For `CCn1nc(C[C@@H](C)COC(=O)[C@H]2CC[C@@H](O)CC2)c2c1C(=O)NCC1(CCOCC1)C2` [Example 147, [(2R)-3-(1-ethyl-8-oxo-spiro[6,7-dihydro-4H-pyrazolo[3,4-c]azepine-5,4′-tetrahydropyran]-3-yl)-2-methyl-propyl] 4-hydroxy-cyclohexanecarboxylate], the IC50 was below 100 nM.

For `CCn1nc(C[C@@H](C)COC(=O)c2ccc(C(=O)N3CCCC3)cc2)c2c1C(=O)NCC1(CCOCC1)C2` [Example 172, [(2R)-3-(1-ethyl-8-oxo-spiro[6,7-dihydro-4H-pyrazolo[3,4-c]azepine-5,4′-tetrahydropyran]-3-yl)-2-methyl-propyl] 4-(pyrrolidine-1-carbonyl)benzoate], the IC50 is below 100 nM.

As for `CCn1nc(CCCOC(=O)c2ccc(F)cc2OC)c2c1C(=O)NCC1(CCOCC1)C2` [Example 40, 3-(1-ethyl-8-oxo-spiro[6,7-dihydro-4H-pyrazolo[3,4-c]azepine-5,4′-tetrahydropyran]-3-yl)propyl 4-fluoro-2-methoxy-benzoate], the IC50 was below 100 nM.

With `CCn1nc(CCCOC(=O)c2cccc(C(N)=O)c2)c2c1C(=O)NCC1(CCOCC1)C2` [Example 113, 3-(1-ethyl-8-oxo-spiro[6,7-dihydro-4H-pyrazolo[3,4-c]azepine-5,4′-tetrahydropyran]-3-yl)propyl 3-carbamoylbenzoate], the IC50 was below 100 nM.

Take `CCn1nc(CC(C)(C)COC(=O)c2ccc(S(=O)(=O)N3CCN(C(C)=O)CC3)cc2)c2c1C(=O)NCC1(CCOCC1)C2` [Example 216, [3-(1-ethyl-8-oxo-spiro[6,7-dihydro-4H-pyrazolo[3,4-c]azepine-5,4′-tetrahydropyran]-3-yl)-2,2-dimethyl-propyl] 4-(4-acetylpiperazin-1-yl)sulfonylbenzoate]: the IC50 was below 100 nM.
